Measured values: patent publication US8076488B2, “Bicyclic urea derivatives useful in the treatment of cancer and other disorders” (Bayer Healthcare LLC, priority 2003, dated 2011)

Each molecule was assayed against T1, c-Raf kinase (Lck-activated c-Raf, Raf-1) (Homo sapiens, UniProt P04049) (assay: c-Raf (Raf-1) biochemical assay (radioactive filtermat assay, MEK-1 substrate)). Conditions: at 1 micromolar compound; 5 μM ATP, 32° C., 1 hour.
T1 construct: GST-c-Raf (from amino acid 302 to amino acid 648); made in house; host or cells: Sf9 insect cells (baculovirus; co-infection with full-length Lck)
T1 sequence (P04049 302-648): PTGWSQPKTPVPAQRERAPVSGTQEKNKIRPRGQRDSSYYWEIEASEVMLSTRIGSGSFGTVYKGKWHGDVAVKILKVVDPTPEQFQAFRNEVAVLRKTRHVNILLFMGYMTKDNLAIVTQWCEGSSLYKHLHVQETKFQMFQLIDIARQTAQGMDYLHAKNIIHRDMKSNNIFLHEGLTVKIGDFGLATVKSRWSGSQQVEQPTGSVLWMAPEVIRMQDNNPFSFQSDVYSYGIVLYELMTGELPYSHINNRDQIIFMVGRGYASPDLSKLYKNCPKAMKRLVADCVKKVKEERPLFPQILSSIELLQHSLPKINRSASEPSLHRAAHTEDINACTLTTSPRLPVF
Procedure: Biological Tests c-Raf (Raf-1) Biochemical Assay Purification of Proteins Used in the Assay
The c-Raf biochemical assay was performed with a c-Raf enzyme that was activated (phosphorylated) by Lck kinase. Lck-activated c-Raf (Lck/c-Raf) was produced in Sf9 insect cells by co-infecting cells with baculoviruses expressing, under the control of the polyhedrin promoter, GST-c-Raf (from amino acid 302 to amino acid 648) and Lck (full-length). Both baculoviruses were used at the multiplicity of infection of 2.5 and the cells were harvested 48 hours post infection.
MEK-1 protein was produced in Sf9 insect cells by infecting cells with the baculovirus expressing GST-MEK-1 (full-length) fusion protein at the multiplicity of infection of 5 and harvesting the cells 48 hours post infection. Similar purification procedure was used for GST-c-Raf 302-648 and GST-MEK-1.
Transfected cells were suspended at 100 mg of wet cell biomass per mL in a buffer containing 10 mM sodium phosphate, 140 mM sodium chloride pH 7.3, 0.5% Triton X-100 and the protease inhibitor cocktail. The cells were disrupted with Polytron homogenizer and centrifuged 30,000 g for 30 minutes. The 30,000 g supernatant was applied onto GSH-Sepharose. The resin was washed with a buffer containing 50 mM Tris, pH 8.0, 150 mM NaCl and 0.01% Triton X-100. The GST-tagged proteins were eluted with a solution containing 100 mM Glutathione, 50 mM Tris, pH 8.0, 150 mM NaCl and 0.01% Triton X-100. The purified proteins were dialyzed into a buffer containing 20 mM Tris, pH 7.5, 150 mM NaCl and 20% Glycerol.
Biochemical Assay Protocol and Results
The compounds were serially diluted in DMSO using three-fold dilutions to stock concentrations ranging typically from 50 μM to 20 nM (final concentrations in the assay range from 1 μM to 0.4 nM). The c-Raf biochemical assay was performed as a radioactive filtermat assay in 96-well Costar polypropylene plates (Costar 3365). The plates were loaded with 75 μL solution containing 50 mM HEPES pH 7.5, 70 mM NaCl, 80 ng of Lck/c-Raf and 1 μg MEK-1. Subsequently, 2 μL of the serially diluted individual compounds were added to the reaction, prior to the addition of ATP. The reaction was initiated with 25 μL ATP solution containing 5 μM ATP and 0.3 μCi [33P]-ATP. The plates were sealed and incubated at 32° C. for 1 hour. The reaction was quenched with the addition of 50 μl of 4% Phosphoric Acid and harvested onto P30 filtermats (PerkinElmer) using a Wallac Tomtec Harvester. Filtermats were washed with 1% Phosphoric Acid first and deinonized H2O second. The filters were dried in a microwave, soaked in scintillation fluid and read in a Wallac 1205 Betaplate Counter (Wallac Inc., Atlanta, Ga., U.S.A.). The results were expressed as percent inhibition. % Inhibition=[[…]]×100 where • Tib=(counts per minute with inhibitor)−(background) • Ti=(counts per minute without inhibitor)−(background)

| inhibition at 1 µM [%] | Structure (SMILES) |
| --- | --- |
| > 40 | CNC(=O)c1cc(Oc2ccc(NC(=O)Nc3cccc4c3OC(F)(F)C(F)(F)O4)cc2)ccn1 [Example 132] |
| > 40 | COC(=O)c1cncc(Oc2ccc(NC(=O)Nc3ccc4c(c3)C(F)(F)OC(F)(F)O4)cc2)c1 [Example 122] |
| > 40 | CNC(=O)c1cc(Oc2ccc(NC(=O)Nc3ccc4[nH]nnc4c3)cc2)ccn1 [Example 26] |
| > 40 | CNC(=O)c1cc(Oc2ccc(NC(=O)Nc3ccc4[nH]c(C)cc4c3)cc2)ccn1 [Example 16] |
| > 40 | CC(=O)c1cc(Oc2ccc(NC(=O)Nc3ccc4c(cnn4C)c3)cc2)ccn1 [Example 3, N-{4-[(2-acetylpyridin-4-yl)oxy]phenyl}-N′-(1-methyl-1H-indazol-5-yl)urea] |
| > 40 | O=C(Nc1cccc(Oc2ccnc(C(=O)NCCN3CCCC3)c2)c1)Nc1ccc2c(c1)C(F)(F)OC(F)(F)O2 [Example 168] |
| > 40 | Cn1ncc2cc(NC(=O)Nc3ccc(Oc4ccnc(C(=O)NCCN5CCCC5)c4)cc3)ccc21 [Example 156] |
| > 40 | NC(=O)c1cc(Oc2cc(F)c(NC(=O)Nc3ccc4c(c3)C(F)(F)OC(F)(F)O4)c(F)c2)ccn1 [Example 150, 4-[3,5-difluoro-4-({[(2,2,4,4-tetrafluoro-4H-1,3-benzodioxin-6-yl)amino]-carbonyl}amino)phenoxy]pyridine-2-carboxamide] |
| > 40 | CCn1c(C)nc2cc(NC(=O)Nc3ccc(Oc4ccnc(C(=O)NC)c4)cc3)ccc21 [Example 29] |
| > 40 | O=C(Nc1cccc(Oc2ccnc(C(=O)Nc3cccnc3)c2)c1)Nc1ccc2c(c1)C(F)(F)OC(F)(F)O2 [Example 169] |
| > 40 | Cn1ncc2cc(NC(=O)Nc3ccc(Oc4ccnc(C(=O)NCCCn5ccnc5)c4)cc3)ccc21 [Example 160] |
| > 40 | CNC(=O)c1cc(COc2ccc(NC(=O)Nc3ccc4c(cnn4C)c3)cc2)ccn1 [Example 88] |
| > 40 | O=C(Nc1ccc(Oc2ccnc(C(=O)NCCN3CCCC3)c2)cc1)Nc1ccc2c(c1)OCCO2 [Example 159] |
| > 40 | CN(C)C(=O)CNC(=O)c1cc(Oc2ccc(NC(=O)Nc3ccc4c(cnn4C)c3)cc2)ccn1 [Example 100] |
| > 40 | O=C(Nc1ccc(Oc2ccnc(C(=O)NCCN3CCCCC3)c2)cc1)Nc1ccc2c(c1)C(F)(F)OC(F)(F)O2 [Example 153] |
| > 40 | O=C(Nc1ccc(Oc2ccnc(C(=O)NCCCn3ccnc3)c2)cc1)Nc1ccc2c(c1)C(F)(F)OC(F)(F)O2 [Example 145, N-[3-(1H-imidazol-1-yl)propyl]-4-[4-({[(2,2,4,4-tetrafluoro-4H-1,3-benzodioxin-6-yl)amino]carbonyl}amino)phenoxy]pyridine-2-carboxamide] |

| inhibition at 1 µM [%] | Structure (SMILES) |
| --- | --- |
| > 40 | CNC(=O)c1cc(Oc2ccc(NC(=O)Nc3ccc4nn(C)cc4c3)cc2)ccn1 [Example 9] |
| > 40 | CNC(=O)c1cc(Oc2ccc(NC(=O)Nc3ccc4c(c3)CCN4S(C)(=O)=O)cc2)ccn1 [Example 31] |
| > 40 | CNC(=O)c1cc(Oc2ccc(NC(=O)Nc3ccc4c(c3)C(F)(F)OC(F)(F)O4)cc2Cl)ccn1 [Example 115] |
| > 40 | CNC(=O)c1cc(Oc2ccc(NC(=O)Nc3ccc4cn[nH]c4c3)cc2)ccn1 [Example 27] |
| > 40 | Cn1ncc2cc(NC(=O)Nc3cccc(Oc4ccnc(C(=O)NCCN5CCCCC5)c4)c3)ccc21 [Example 148, 4-[3-({[(1-methyl-1H-indazol-5-yl)amino]carbonyl}amino)phenoxy]-N-(2-piperidin-1-ylethyl)pyridine-2-carboxamide] |
| > 40 | O=C(Nc1ccc(Oc2ccnc(C(=O)NCCN3CCCC3)c2)cc1)Nc1ccc2c(c1)C(F)(F)OC(F)(F)O2 [Example 146, N-(2-pyrrolidin-1-ylethyl)4-[4-({[(2,2,4,4-tetrafluoro-4H-1,3-benzodioxin-6-yl)-amino]carbonyl}amino)phenoxy]pyridine-2-carboxamide] |
| > 40 | CNC(=O)c1cc(Oc2ccc(NC(=O)Nc3ccc4sc(C)nc4c3)c(C(F)(F)F)c2)ccn1 [Example 65] |
| > 40 | Cn1ncc2cc(NC(=O)Nc3ccc(Oc4ccnc(C(=O)NCCN5CCNCC5)c4)cc3)ccc21 [Example 157] |
| > 40 | Cn1ncc2cc(NC(=O)Nc3ccc(Oc4ccnc(C(=O)NC5CC5)c4)cc3)ccc21 [Example 147, N-cyclopropyl-4-[4-({[(1-methyl-1H-indazol-5-yl)amino]-carbonyl}amino)phenoxy]pyridine-2-carboxamide] |
| > 40 | CNC(=O)c1cc(Oc2ccc(NC(=O)Nc3ccc4[nH]c(C(F)(F)F)nc4c3)cc2)ccn1 [Example 28] |
| > 40 | CNC(=O)c1cc(Oc2ccc(NC(=O)Nc3ccc4c(c3)OC(F)(F)O4)cc2)ccn1 [Example 20] |
| > 40 | CCN(CC)CCn1ccc2cc(NC(=O)Nc3ccc(Oc4ccnc(C(=O)NC)c4)cc3F)ccc21 [Example 44] |
| > 40 | CNC(=O)c1cc(Oc2cccc(NC(=O)Nc3ccc4[nH]nnc4c3)c2)ccn1 [Example 37] |
| > 40 | CNC(=O)c1cc(Oc2ccc(NC(=O)Nc3nc4ccc(OC(F)(F)F)cc4s3)cc2)ccn1 [Example 12] |
| > 40 | CNC(=O)c1cc(Oc2ccc(NC(=O)Nc3ccc4c(c3)CCC4=O)cc2)ccn1 [Example 22] |
| > 40 | CNC(=O)c1cc(Oc2ccc(NC(=O)Nc3nc4c(F)cc(F)cc4s3)cc2)ccn1 [Example 103] |
